Here are results for 114 compounds from PubChem BioAssay AID1194 (EPA DSSTox, 2008).

The source made the active and inactive calls.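 Rule for the calls: active = chemicals rated mutagenic or weakly mutagenic in the Salmonella bacterial test by one literature review, or positive overall by another; inconclusive = no clear call, values can overlap the other calls; inactive = the rest.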

For this series, the system named is Salmonella typhimurium Ames mutagenicity, literature compiled. The experiment in a line: DSSTox (CPDBAS) Carcinogenic Potency Database Salmonella Mutagenicity. The method in brief: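 Literature-compiled Salmonella result: chemical called active if rated overall "mutagenic" or "weakly mutagenic" by Zeiger or overall "positive" by the EPA Gene-Tox Program.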
As to `CCCCNC(=O)NS(=O)(=O)c1ccc(C)cc1`, the outcome was “inactive; active”.
With `C=C(F)F`, the outcome was active.
Next, `O=NN1CCCN(N=O)CC1`: “active”.
For the compound `NC(=O)N(CCO)N=O`, the outcome was active.
Consider `C1CC2OC2CC1C1CO1` (centres undefined), for which the outcome was active.
With `O=C1C=C2C(=CCOC2O)O1` (centres undefined), the outcome is “inactive; active”.
On to `CC1(C)S[C@@H]2[C@H](NC(=O)[C@H](N)c3ccccc3)C(=O)N2[C@H]1C(=O)O`, for which the result was inactive.
For `COc1cc2c(c3oc4cccc(O)c4c(=O)c13)C1C=COC1O2` (centres undefined), the outcome is “active; inactive”.
For the compound `S=C([S-])NCCNC(=S)[S-].[Zn+2]`, the outcome is “inactive; active”.
Then `N=C1C=CC(=C(c2ccc(N)cc2)c2ccc(N)cc2)C=C1`, with “active”.
Take `ClC(Cl)Cl`: the outcome was inactive.
Then `CN(C#N)N=O`, with “active; inactive”; and `O=c1[nH]cc(F)c(=O)[nH]1`, with “inactive; active”; and `Nc1ccc(Cl)cc1N`, with “active; inactive”.
Then `CCNc1nc(Cl)nc(NC(C)C)n1`, with “inactive; active”.
Then `COC(=O)C1=CCCN(N=O)C1`, with “active”; and `Cc1cccc(C)c1N`, with “active”; and `ClC1C2(Cl)C3C4C5OC5C5C4C1(Cl)C(Cl)(C53)C2(Cl)Cl` (centres undefined), with “active”.
In the case of `CCCC[C@H](C)[C@@H](OC(=O)C[C@H](CC(=O)O)C(=O)O)[C@@H](C[C@H](C)C[C@@H](O)CCCC[C@@H](O)C[C@H](O)[C@H](C)N)OC(=O)C[C@H](CC(=O)O)C(=O)O`, the outcome was inactive.
`CN(N=O)C(=O)c1ccccc1`: the result was active.
Next, `O=[N+]([O-])c1ccc2c3c(cccc13)CC2`: “active”.
`COP(=O)(OC)OC`: the outcome was “active; inactive”.
Take `Nc1ccc(N=Nc2ccc(-c3ccc(N=Nc4c(S(=O)(=O)O)cc5cc(S(=O)(=O)O)c(N=Nc6ccccc6)c(O)c5c4N)cc3)cc2)c(N)c1`: the result was active.
With `O=P1(N(CCCl)CCCl)NCCCO1` (centres undefined), the outcome was active.
As for `O=C1c2ccccc2C(=O)N1SC(Cl)(Cl)Cl`, the result was active.
As to `Cn1cnc([N+](=O)[O-])c1Sc1ncnc2nc[nH]c12`, the outcome was active.
Regarding `c1ccc2[nH]c(-c3cscn3)nc2c1`, the result was active.
Next, `c1ccc(NNc2ccccc2)cc1`: “active”; `Cc1c(N)cccc1N`: “active; inactive”; `CN(CCCC(=O)O)N=O`: “inactive”.
Next, `O=S1(=O)CC=CC1`: “inactive; active”.
As for `C[C@H](CCC(=O)O)[C@H]1CC[C@H]2[C@@H]3CC[C@@H]4C[C@H](O)CC[C@]4(C)[C@H]3CC[C@]12C`, the outcome was inactive.
Next, `O=C(O)/C=C/c1ccc(O)c(O)c1`: “inactive”; `O=C1OC(=O)c2ccccc21`: “inactive; active”.
Next, `CCC1(c2ccccc2)C(=O)NC(=O)NC1=O`: “active”; `CC(O)CN(CC(C)O)CC(C)O` (centres undefined): “inactive; active”.
Then `Nc1c(Cl)cc(Cl)cc1Cl`, with “inactive; active”; and `CN(N=O)c1ccncc1`, with “inactive; active”; and `CN(CCc1ccccc1)N=O`, with “active”.
As for `NC(N)=NC(N)=NCCc1ccccc1`, the outcome was “inactive; active”.
Then `C=CCOC(=O)c1ccccc1C(=O)OCC=C`, with “inactive; active”; and `CC(C)O`, with “inactive; active”; and `CCCCCC`, with “inactive”.
For `CC[C@H]1CN2CCc3cc(OC)c(OC)cc3[C@@H]2C[C@@H]1C[C@H]1NCCc2cc(OC)c(OC)cc21`, the outcome was “inactive; active”.
Next, `CC(=O)OC(OC(C)=O)c1ccc([N+](=O)[O-])o1`: “active”; `O[C@@H]([C@H](O)[C@@H](O)CBr)[C@@H](O)CBr`: “active”; `CCCCN(CCCCO)N=O`: “active; inactive”.
Next, `CC1=C(/C=C/C(C)=C/C=C/C(C)=C/C=C/C=C(C)/C=C/C=C(C)/C=C/C2=C(C)CCCC2(C)C)C(C)(C)CCC1`: “active; inactive”.
Then `O=C(O)C1[O][Sb]2[O]C(=O)C([O]2)C(C(=O)O)[O][Sb]2[O]C(=O)C1[O]2` (centres undefined), with “inactive”; and `C=COC(C)=O`, with “inactive”; and `c1ccc2c(c1)[nH]c1cnccc12`, with “active”.
Turning to `O=C(c1ccccc1)C(O)c1ccccc1` (centres undefined), the outcome was inactive.
Then `Cc1ccc(Cl)cc1N`, with “inactive; active”; and `S=C(NC1CCCCC1)NC1CCCCC1`, with “inactive; active”; and `CS(=O)(=O)OCCCCOS(C)(=O)=O`, with “active”.
Regarding `CC12CCC(CC1)C(C)(C)O2`, the outcome is “inactive; active”.
Regarding `COc1ccc(C(Cl)=C(c2ccc(OC)cc2)c2ccc(OC)cc2)cc1`, the outcome was inactive.
On to `O=[N+]([O-])c1ccc(O)c([N+](=O)[O-])c1`, for which the result was inactive.
Then `ClCCCl`, with “active”; and `CC1(C)S[C@@H]2[C@H](NC(=O)COc3ccccc3)C(=O)N2[C@H]1C(=O)O`, with “inactive; active”.
For `O=C1CCCCC1`, the outcome is “inactive; active”.
Next, `COP(=O)(OC)OC=C(Cl)Cl`: “active; inactive”; `COc1cc(N=Nc2ccccc2)ccc1N`: “active”; `CCC(Br)(CC)C(=O)NC(N)=O`: “inactive”.
Next, `ClCC(Cl)CCl`: “active; inactive”.
Then `CC1=CC(=C(c2ccc(N)cc2)c2ccc(N)cc2)C=CC1=N`, with “active; inactive”.
As for `C/C=C1/C[C@@H](C)[C@](O)(CO)C(=O)OCC2=CCN3CC[C@@H](OC1=O)[C@@H]23`, the outcome was “active; inactive”.
Turning to `O=NN1CCCCC1`, the result was active.
Take `NC(=O)c1ccccc1C(N)=O`: the result was inactive.
As to `CN(C)c1ccc(C(=O)c2ccc(N(C)C)cc2)cc1`, the outcome is “active; inactive”.
Next, `Cc1cc(=O)[nH]c(=S)[nH]1`: “inactive”; `NC(=O)c1cnccn1`: “inactive; active”; `Nc1ccc2c(n1)[nH]c1ccccc12`: “active”.
Turning to `CCCCN(N=O)C(=N)N[N+](=O)[O-]`, the result was active.
Then `CC(=O)OC/C=C(\C)CCC=C(C)C`, with “inactive”.
For the compound `O=c1c(O)c(-c2ccc(O)cc2)oc2cc(O)cc(O)c12`, the outcome was active.
Next, `COc1ccc(C)cc1N`: “active”; `Cc1c(N)nc(C)c2c1[nH]c1ccccc12`: “active”; `COc1cc(/C=C/C(=O)CC(=O)/C=C/c2ccc(O)c(OC)c2)ccc1O`: “inactive”.
As to `O=NN1CCCCCCCCCCCC1`, the outcome was “active; inactive”.
Then `CCCl`, with “active”.
Consider `Cc1cc(Cc2ccc(N)c(C)c2)ccc1N`, for which the outcome was active.
`Cc1cnc2ccc3c(nc(N)n3C)c2n1`: the result was active.
Turning to `BrCCBr`, the result was active.
Then `CC(CCl)OC(C)CCl` (centres undefined), with “active”.
For `COc1ccc(C(=O)/C(Br)=C\C(=O)O)cc1`, the outcome was active.
As for `ClC1=C(Cl)[C@@]2(Cl)[C@@H]3[C@@H](Cl)[C@H](Cl)C[C@@H]3C1(Cl)C2(Cl)Cl`, the outcome was “inactive; active”.
Then `CCCCOC(=O)COc1ccc(Cl)cc1Cl`, with “inactive; active”; and `Nc1ccc2nc3ccccn3c2n1`, with “active”; and `COc1cc2c(c3oc(=O)c4c(c13)CCC4=O)C1C=COC1O2` (centres undefined), with “active”.
Consider `O=c1ccc(=O)[nH][nH]1`, for which the outcome is “inactive; active”.
Turning to `FC(Cl)(Cl)Cl`, the outcome was “inactive; active”.
Turning to `C=CCN(CC=C)N=O`, the result was active.
For the compound `CCCCC(CC)CO` (centres undefined), the outcome was “inactive; active”.
As to `Oc1ccc(Cl)cc1Cl`, the outcome is “inactive; active”.
Then `OCCBr`, with “active”.
Regarding `Cc1ncc[nH]1`, the outcome was inactive.
Then `CCSCC[C@H](N)C(=O)O`, with “inactive”; and `O=c1cc[nH]c(=O)[nH]1`, with “inactive; active”; and `ClCC(Cl)(Cl)Cl`, with “inactive; active”.
For the compound `C=CCc1ccc(OC)cc1`, the outcome was “inactive; active”.
Then `C[N+](C)(C)CCO`, with “inactive; active”; and `CC(N)Cc1ccccc1` (centres undefined), with “inactive”; and `CN(C)c1ccc(Cc2ccc(N(C)C)cc2)cc1`, with “active”.
Then `Clc1ccc(C(c2ccc(Cl)cc2)C(Cl)Cl)cc1`, with “inactive”.
Next, `Nc1cc(S(=O)(=O)O)cc2cc(S(=O)(=O)O)c(N=Nc3ccc(-c4ccc(N=Nc5c(S(=O)(=O)O)cc6cc(S(=O)(=O)O)cc(N)c6c5O)cc4)cc3)c(O)c12`: “active”; `CCCCC(CC)COP(=O)(OCC(CC)CCCC)OCC(CC)CCCC` (centres undefined): “inactive; active”.
Regarding `[O-]/[N+](=N\O)c1ccccc1`, the outcome is “active; inactive”.
Then `ClC(Cl)C(Cl)(Cl)Cl`, with “inactive”; and `Nc1ncn[nH]1`, with “inactive; active”; and `O=S(=O)(O)c1cc(S(=O)(=O)O)c2c(N=Nc3ccccc3)c(O)ccc2c1`, with “inactive; active”.
Regarding `Clc1ccc(C(c2ccc(Cl)cc2)C(Cl)(Cl)Cl)cc1`, the result was inactive.
Consider `CCOC(N)=O`, for which the outcome is “active; inactive”.
With `O=S1(=O)CCCO1`, the outcome was “active; inactive”.
